Assay results: patent publication US20230278954A1, “BRANCHED LIPID COMPOUDS” (priority 2020, published 2023)
Values joined by “and” are separate entries in the source; they are usually repeats but may differ in a detail not shown here. Equal values may be shown once.

Tests used:
mouse TLR2 = target: T1, mouse TLR2 (Mus musculus, UniProt Q9QUN7); assay: HEK-Blue mTLR2 dose response (SEAP reporter); assay type: cell-based
T1 construct: expressed in transfected cells; host or cells: HEK-Blue mTLR2 cells
T1 sequence (Q9QUN7 25-784): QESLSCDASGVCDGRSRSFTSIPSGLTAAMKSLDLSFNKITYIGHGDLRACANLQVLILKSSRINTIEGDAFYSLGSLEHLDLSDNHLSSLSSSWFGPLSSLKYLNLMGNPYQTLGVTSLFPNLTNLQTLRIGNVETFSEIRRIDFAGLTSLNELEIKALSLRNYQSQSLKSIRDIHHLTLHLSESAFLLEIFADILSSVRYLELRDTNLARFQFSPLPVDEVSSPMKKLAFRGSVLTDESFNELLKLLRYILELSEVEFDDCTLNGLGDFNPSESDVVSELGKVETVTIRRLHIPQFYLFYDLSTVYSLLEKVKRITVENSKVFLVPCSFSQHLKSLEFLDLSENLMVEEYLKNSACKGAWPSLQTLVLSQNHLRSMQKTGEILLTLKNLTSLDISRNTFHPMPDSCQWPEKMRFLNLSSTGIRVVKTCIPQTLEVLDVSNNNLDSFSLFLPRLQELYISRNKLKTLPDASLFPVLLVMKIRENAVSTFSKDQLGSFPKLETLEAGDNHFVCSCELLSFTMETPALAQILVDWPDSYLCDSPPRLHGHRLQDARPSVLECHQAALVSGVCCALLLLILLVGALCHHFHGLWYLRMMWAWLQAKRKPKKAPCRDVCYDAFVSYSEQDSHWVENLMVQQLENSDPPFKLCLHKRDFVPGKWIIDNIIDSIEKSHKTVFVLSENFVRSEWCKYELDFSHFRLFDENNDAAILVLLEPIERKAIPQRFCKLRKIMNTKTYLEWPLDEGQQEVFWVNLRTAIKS
T1 sequence (Q9Y2C9 32-796 partner): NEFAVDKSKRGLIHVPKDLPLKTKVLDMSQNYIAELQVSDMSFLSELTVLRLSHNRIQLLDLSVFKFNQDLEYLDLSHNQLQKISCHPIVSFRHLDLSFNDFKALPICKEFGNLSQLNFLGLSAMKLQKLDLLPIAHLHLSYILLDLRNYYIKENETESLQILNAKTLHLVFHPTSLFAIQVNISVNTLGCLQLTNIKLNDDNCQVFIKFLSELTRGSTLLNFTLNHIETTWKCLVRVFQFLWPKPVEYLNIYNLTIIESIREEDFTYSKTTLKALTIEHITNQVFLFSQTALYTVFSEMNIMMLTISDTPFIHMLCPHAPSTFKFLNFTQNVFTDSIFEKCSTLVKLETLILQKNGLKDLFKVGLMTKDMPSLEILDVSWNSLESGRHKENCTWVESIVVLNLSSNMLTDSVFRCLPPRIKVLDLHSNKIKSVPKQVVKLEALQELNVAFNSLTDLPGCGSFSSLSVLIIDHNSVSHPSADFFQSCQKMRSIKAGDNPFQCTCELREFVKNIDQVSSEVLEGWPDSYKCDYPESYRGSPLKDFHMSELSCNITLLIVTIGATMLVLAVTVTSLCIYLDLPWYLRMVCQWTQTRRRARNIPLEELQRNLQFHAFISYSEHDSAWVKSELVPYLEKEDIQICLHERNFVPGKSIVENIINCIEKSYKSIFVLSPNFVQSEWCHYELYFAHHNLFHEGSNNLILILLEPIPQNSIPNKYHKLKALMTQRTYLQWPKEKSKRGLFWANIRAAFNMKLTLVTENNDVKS
Experimental: (§1) Toll-Like Receptor (TLR) stimulation is tested by assessing NF-KB activation in the TLR expressing cell lines. HEK-Blue h/mTLR2 cells have been stably transfected with human or mouse TLR2 and CD14. The activity of the test articles are tested on human and mouse TLR2, as potential agonists. The test articles are evaluated at seven concentrations and compared to control ligands (see list below). These steps are performed in triplicate.
(§2) A 5 µg/mL working stock was then prepared for each compound from the 20 µg/mL dilution in sterile PBS. Starting from the 5 µg/mL working stock, a series of six 1:4 serial dilutions were made by mixing 100 µL of the previous highest dilution with 300 µL sterile PBS.
(§3) The secreted embryonic alkaline phosphatase (SEAP) reporter is under the control of a promoter inducible by the transcription factor NF-κB. This reporter gene allows the monitoring of signaling through the TLR, based on the activation of NF-κB. In a 96-well plate (200 µL total volume) containing the appropriate cells (50,000 - 75,000 cells/well), 20 µL of the test article or the positive control ligand (HKLC) is added to the wells. The media added to the wells is designed for the detection of NF-κB induced SEAP expression. After a 16-24-hour incubation the optical density (OD) is read at 650 nm on a Molecular Devices SpectraMax 340PC absorbance detector.

human TLR2 [1] = target: T2, human TLR2 (Homo sapiens, UniProt O60603); assay: Activation of human TLR2 III: HEK-Blue hTLR2 dose response (SEAP reporter); assay type: cell-based; settings: for optical density (650 nm): screenings 1-3; for stimulatory / agonist activity for hTLR2 (in words) / fold induction at 120 fg/mL / fold induction at 490 fg/mL / fold induction at 1.95 pg/mL / fold induction at 7.81 pg/mL / fold induction at 31.25 pg/mL / fold induction at 0.000125 µg/mL / fold induction at 0.0005 µg/mL: HEK-Blue hTLR2; for fold induction at 120 fg/mL / fold induction at 490 fg/mL / fold induction at 1.95 pg/mL / fold induction at 7.81 pg/mL / fold induction at 31.25 pg/mL / fold induction at 0.000125 µg/mL / fold induction at 0.0005 µg/mL: read-out: Fold Induction (ratio of average induced value to average non-induced value); for EC50: agonism of hTLR2, HEK-Blue hTLR2
T2 construct: expressed in transfected cells; host or cells: HEK-Blue hTLR2 cells
T2 sequence (O60603 21-784): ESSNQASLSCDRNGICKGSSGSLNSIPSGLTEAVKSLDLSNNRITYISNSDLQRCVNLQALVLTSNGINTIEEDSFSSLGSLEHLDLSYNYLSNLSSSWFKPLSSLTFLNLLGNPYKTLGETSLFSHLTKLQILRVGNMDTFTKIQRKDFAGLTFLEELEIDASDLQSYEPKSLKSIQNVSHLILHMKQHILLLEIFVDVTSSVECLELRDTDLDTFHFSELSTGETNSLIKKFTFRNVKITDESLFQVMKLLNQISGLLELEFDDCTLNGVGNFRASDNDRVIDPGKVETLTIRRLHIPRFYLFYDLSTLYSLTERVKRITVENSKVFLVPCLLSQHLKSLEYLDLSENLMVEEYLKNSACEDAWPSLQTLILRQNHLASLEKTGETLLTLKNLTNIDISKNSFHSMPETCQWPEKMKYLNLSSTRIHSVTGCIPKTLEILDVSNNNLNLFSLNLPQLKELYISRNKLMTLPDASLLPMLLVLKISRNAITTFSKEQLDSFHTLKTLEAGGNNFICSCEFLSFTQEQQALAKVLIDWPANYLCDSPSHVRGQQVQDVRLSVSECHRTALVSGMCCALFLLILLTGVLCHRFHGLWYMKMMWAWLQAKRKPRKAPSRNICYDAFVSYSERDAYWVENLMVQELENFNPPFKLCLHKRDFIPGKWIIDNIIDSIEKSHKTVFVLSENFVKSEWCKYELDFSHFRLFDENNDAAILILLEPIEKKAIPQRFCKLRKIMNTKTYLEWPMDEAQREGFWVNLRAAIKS
T2 sequence (Q9Y2C9 32-796 partner): as the sequence (Q9Y2C9 32-796 partner) above
Experimental: as §1, §2, §3

human TLR2 [2] = target: T2, human TLR2; assay: Activation of human TLR2 II: HEK-BLUE-hTLR2 NF-kB/SEAP reporter assay; assay type: cell-based; settings: for optical density (650 nm): screenings 1-3; for EC50 / activity at TLR2 (in words): HEK-BLUE-hTLR2 cells; for fold induction at 0.0001 µg/mL / fold induction at 0.00031 µg/mL / fold induction at 0.0005 µg/mL / fold induction at 0.002 µg/mL / fold induction at 0.0078 µg/mL / fold induction at 0.0313 µg/mL / fold induction at 0.125 µg/mL: HEK-Blue hTLR2, read-out: Fold induction (ratio of average induced value to average non-induced value)
Experimental: The potency of the compounds as activators of human TLR-2s is tested in an in vitro assay in HEK-BLUE-hTLR2 cells.
HEK-BLUE-hTLR2 cells are designed for studying the stimulation of human TLR2 (hTLR2) by monitoring the activation of NF-kB. HEK-BLUE-hTLR2 cells are obtained by co-transfection of the hTLR2 and SEAP (secreted embryonic alkaline phosphatase) reporter genes into HEK293 cells. Stimulation with a TLR2 ligand activates NF-kB which induces the production of SEAP.
HEK-BLUE-hTLR2 cells were purchased from InvivoGen (San Diego, CA, USA). Cells were grown in DMEM supplemented with 10% FCS, 100 U/ml penicillin, 100 ug/ml streptomycin and 2 mM L-glutamine, 100 µg/mL Normocin in the presence of selection antibiotic purchased from InvivoGen and passaged when 70% confluence was reached per manufacturer’s recommendation.
i) A serial dilution of respective compounds were prepared in saline and added in […] of each dilution in triplicates per well in a flat bottom 96-well plate and placed in the incubator while waiting for the cells.
ii) Remove HEK-BLUE-hTLR2 cells in a T-75 flask from incubator and discard the growth media.
iii) Gently rinse the cells with prewarmed 10 ml of PBS
iv) Add 5 ml of prewarmed PBS and place the cells in 37° C. for 2 mins and then detach the cells by gently pipetting up and down the PBS on the surface where the cells adhere.
v) Cells suspension at the density of 280,000 cells/ml is prepared in HEK-Blue™ Detection medium which is purchased from InvivoGen and prepared according to the manufacturer’s instruction,
vi) Add immediately […] of the cell suspension per well of the plate which contains the solution of the compounds. […]

HEK-Blue Null1 cells = assay: TLR- control cell line HEK-Blue Null1 (control for human TLR2); assay type: cell-based
Experimental: as §3

[3] = Stability IV: accelerated storage stability over 28 days, UHPLC; assay type: physicochemical; settings: 40° C./75% RH
Experimental: Each compound was formulated in 0.9% w/w saline with addition of 0.1% w/w EDTA at about pH 5. The formulations were stored in the dark under accelerated conditions (40° C./75% RH) and reference formulations were stored at -80° C. At days 0, 9 and 28, samples were analysed by UHPLC and pH was measured.
Approximately 1.5 mg of each compound was weighed into glass HPLC vials and 1.5 mL of saline/EDTA formulation adjusted to pH 5.0 was added. The vials were vortex mixed then warmed under running hot water until full dissolution was observed.
4 × 100 uL aliquots of each solution were transferred to Agilent polypropylene 200 µL HPLC vials for storage under accelerated and reference conditions (two aliquots at each condition). These vials were removed at each time point for HPLC analysis. The frozen reference solutions at Day 9 and Day 28 were gently warmed under running hot water followed by vortex mixing for ~ 10 sec and sonication for 10 min to encourage complete dissolution. […]
Compounds B4 and B12 were analysed according to Gradient 2: […]
UHPLC results were analysed in a similarly to that described in Example 8. […]
Percentage recovery of main peak area is calculated according to the following equation (1): […]

## CCCCCCCCCCCCCCC(C)C(=O)OCC[C@H](CSC[C@H](N)C(=O)N[C@@H](CO)C(=O)NCCOCCOCCOCCOCCOCCOCCOCCOCCOCCOCCOCCOCCOCCOCCOCCOCCOCCOCCOCCOCCOCCOCCOCCOCCOCCOCCOCCOCCC(=O)NCC(N)=O)OC(=O)C(C)CCCCCCCCCCCCCC (stereo partly drawn) [Compound B12]
Mouse TLR2
  stimulatory / agonist activity for mTLR2 (in words): stimulatory activity
Human TLR2 [1]; 0.12 pg/mL
  Average optical density (650 nm): 1.362
  optical density (650 nm): 1.443 and 1.313 and 1.329
  fold induction at 120 fg/mL: 18.7
Human TLR2 [1]; 0.49 pg/mL
  Average optical density (650 nm): 1.860
  optical density (650 nm): 1.892 and 1.785 and 1.902
  fold induction at 490 fg/mL: 25.5
Human TLR2 [1]; 1.95 pg/mL
  Average optical density (650 nm): 2.045
  optical density (650 nm): 2.149 and 2.008 and 1.979
  fold induction at 1.95 pg/mL: 28
Human TLR2 [1]; 7.81 pg/mL
  Average optical density (650 nm): 2.411
  optical density (650 nm): 2.420 and 2.446 and 2.366
  fold induction at 7.81 pg/mL: 33
Human TLR2 [1]; 31.25 pg/mL
  Average optical density (650 nm): 2.457
  optical density (650 nm): 2.492 and 2.500 and 2.380
  fold induction at 31.25 pg/mL: 33.7
Human TLR2 [1]; 125 pg/mL
  Average optical density (650 nm): 2.568
  optical density (650 nm): 2.608 and 2.541 and 2.555
  fold induction at 0.000125 µg/mL: 35.2
Human TLR2 [1]; 500 pg/mL
  Average optical density (650 nm): 2.471
  optical density (650 nm): 2.584 and 2.404 and 2.426
  fold induction at 0.0005 µg/mL: 33.9
Human TLR2 [1]
  stimulatory / agonist activity for hTLR2 (in words): stimulatory activity
  EC50: 0.0509 nM
Human TLR2 [2]; 0.1 ng/mL
  optical density (650 nm): 0.239 and 0.202 and 0.208
  fold induction at 0.0001 µg/mL: 2.2
Human TLR2 [2]; 0.31 ng/mL
  optical density (650 nm): 0.116 and 0.132 and 0.137
  fold induction at 0.00031 µg/mL: 1.3
Human TLR2 [2]; 0.5 ng/mL
  optical density (650 nm): 0.585 and 0.558 and 0.559
  fold induction at 0.0005 µg/mL: 5.8
Human TLR2 [2]; 2.0 ng/mL
  optical density (650 nm): 1.429 and 1.308 and 1.638
  fold induction at 0.002 µg/mL: 15
Human TLR2 [2]; 7.8 ng/mL
  optical density (650 nm): 2.187 and 2.257 and 2.302
  fold induction at 0.0078 µg/mL: 23.2
Human TLR2 [2]; 31.3 ng/mL
  optical density (650 nm): 2.422 and 2.423 and 2.449
  fold induction at 0.0313 µg/mL: 25.1
Human TLR2 [2]; 125 ng/mL
  optical density (650 nm): 2.409 and 2.564 and 2.615
  fold induction at 0.125 µg/mL: 26.1
Human TLR2 [2]
  EC50: 0.74 nM
  activity at TLR2 (in words): significant activity
HEK-Blue Null1 cells
  stimulatory response in HEK-Blue Null1 (human) cells (in words): not observed
[3]
  storage stability under accelerated conditions (in words): most stable compounds

## CCCCCCCCCCCCCCC(C)C(=O)OC[C@H](CSC[C@H](N)C(=O)N[C@@H](CO)C(=O)NCCOCCOCCOCCOCCOCCOCCOCCOCCOCCOCCOCCOCCOCCOCCOCCOCCOCCOCCOCCOCCOCCOCCOCCOCCOCCOCCOCCOCCC(=O)NCC(N)=O)OC(=O)C(C)CCCCCCCCCCCCCC (stereo partly drawn) [Compound B4]
Mouse TLR2
  stimulatory / agonist activity for mTLR2 (in words): stimulatory activity
Human TLR2 [1]; 0.12 pg/mL
  Average optical density (650 nm): 0.740
  optical density (650 nm): 0.653 and 0.759 and 0.809
  fold induction at 120 fg/mL: 10.3
Human TLR2 [1]; 0.49 pg/mL
  Average optical density (650 nm): 1.479
  optical density (650 nm): 1.409 and 1.507 and 1.521
  fold induction at 490 fg/mL: 20.5
Human TLR2 [1]; 1.95 pg/mL
  Average optical density (650 nm): 1.823
  optical density (650 nm): 1.795 and 1.757 and 1.916
  fold induction at 1.95 pg/mL: 25.3
Human TLR2 [1]; 7.81 pg/mL
  Average optical density (650 nm): 2.260
  optical density (650 nm): 2.288 and 2.168 and 2.323
  fold induction at 7.81 pg/mL: 31.4
Human TLR2 [1]; 31.25 pg/mL
  Average optical density (650 nm): 2.481
  optical density (650 nm): 2.440 and 2.485 and 2.518
  fold induction at 31.25 pg/mL: 34.5
Human TLR2 [1]; 125 pg/mL
  Average optical density (650 nm): 2.521
  optical density (650 nm): 2.569 and 2.508 and 2.487
  fold induction at 0.000125 µg/mL: 35
Human TLR2 [1]; 500 pg/mL
  Average optical density (650 nm): 2.611
  optical density (650 nm): 2.717 and 2.590 and 2.526
  fold induction at 0.0005 µg/mL: 36.3
Human TLR2 [1]
  stimulatory / agonist activity for hTLR2 (in words): stimulatory activity
  EC50: 0.214 nM
Human TLR2 [2]; 0.1 ng/mL
  optical density (650 nm): 0.182 and 0.206 and 0.197
  fold induction at 0.0001 µg/mL: 1.9
Human TLR2 [2]; 0.31 ng/mL
  optical density (650 nm): 0.126 and 0.115
  fold induction at 0.00031 µg/mL: 1.2
Human TLR2 [2]; 0.5 ng/mL
  optical density (650 nm): 0.719 and 0.594 and 0.617
  fold induction at 0.0005 µg/mL: 6.2
Human TLR2 [2]; 2.0 ng/mL
  optical density (650 nm): 1.660 and 1.529 and 1.498
  fold induction at 0.002 µg/mL: 15.2
Human TLR2 [2]; 7.8 ng/mL
  optical density (650 nm): 2.214 and 2.163
  fold induction at 0.0078 µg/mL: 21.3
Human TLR2 [2]; 31.3 ng/mL
  optical density (650 nm): 2.438 and 2.327 and 2.350
  fold induction at 0.0313 µg/mL: 23
Human TLR2 [2]; 125 ng/mL
  optical density (650 nm): 2.451 and 2.411 and 2.467
  fold induction at 0.125 µg/mL: 23.7
Human TLR2 [2]
  EC50: 0.605 nM
  activity at TLR2 (in words): significant activity
HEK-Blue Null1 cells
  stimulatory response in HEK-Blue Null1 (human) cells (in words): not observed
[3]
  storage stability under accelerated conditions (in words): most stable compounds
